Values quoted from earlier work in US20230025286A1, “PHARMACEUTICAL COMPOSITION COMPRISING ELTROMBOPAG BIS(MONOETHANOLAMINE)” (SYNTHON B.V., priority 2019, published 2023).

Tests used:
[1] = background statement, no method or value given
[2] = background statement, no method or value given; remark: listed apart in the source

solubility [1]: low
permeability [2]: medium
Compound: CC1=NN(c2ccc(C)c(C)c2)C(=O)/C1=N\Nc1cccc(-c2cccc(C(=O)O)c2)c1O.NCCO.NCCO [Eltrombopag bis(monoethanolamine), 3′-{(2Z)-2-[1-(3,4-dimethylphenyl)-3-methyl-5-oxo-1,5-dihydro-4H-pyrazol-4-ylidene]hydrazino}-2′-hydroxy-3-biphenylcarboxylic acid bis(monoethanolamine)]
